# In patent publication US20250034150A1, “BTK INHIBITORS” (BIOGEN MA INC., priority 2021, published 2025):
# Experiments:
# [1] = target: T1, BTK (Homo sapiens, UniProt Q06187); test: In Vitro BTK Kinase Assay: Btk-PolyGAT-LS Assay; assay type: biochemical; details: active BTK enzyme 0.25 nM, polyGAT 100 nM, 30 minutes, TRF readout; read-out: In Vitro BTK Kinase Assay IC50 Score
# T1 construct: purchased Upstate 14-552
# Outline: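 Active BTK at 0.25 nM phosphorylated 100 nM fluorescein-polyGAT peptide at 10 μM ATP for 30 minutes. Buffer was Tris pH 7.5 with MgCl2, DTT, Triton X-100 and casein, and reactions were stopped with EDTA. Phospho-peptide was detected by Tb-PY20 antibody TR-FRET, and IC50 came from a four-parameter fit normalized to DMSO and EDTA controls.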
# [2] = tested on: CD69 expression on CD19+ B cells in human whole blood; test: In Vitro whole blood CD69 Assay; assay type: cell-based; details: B-cell; human heparinized whole blood, anti-human IgD stimulation overnight, CD19+ B cells, flow cytometry; read-out: In Vitro HWB CD69 Assay IC50 Score
# Experimental: Human heparinized venous blood from health donors was aliquoted into 96-well plate and “spiked” with serial dilutions of formula I compounds in DMSO or with DMSO without drug. The final concentration of DMSO in all wells was 0.1%. The plate was incubated at 37° C. for 30 min. Drug-containing samples were stimulated with 0.1 μg/mL mouse anti-human IgD-dextran (1A62) or 20 μg/mL polyclonal rabbit F(ab′)2 anti-human IgD. Phosphate-buffered saline (PBS) was added to the negative control unstimulated sample and the plates were incubated overnight (18 to 22 hours) at 37° C. Cells were stained with fluorochrome-conjugated anti-CD19 and anti-CD69 antibodies. Lyse/fix solution was used to remove red blood cells by hypotonic lysis and to fix the remaining cells, which were then analyzed by flow cytometry. CD19+ B cells were gated and analyzed for CD69 expression.
# T1 sequence (Q06187 whole entry): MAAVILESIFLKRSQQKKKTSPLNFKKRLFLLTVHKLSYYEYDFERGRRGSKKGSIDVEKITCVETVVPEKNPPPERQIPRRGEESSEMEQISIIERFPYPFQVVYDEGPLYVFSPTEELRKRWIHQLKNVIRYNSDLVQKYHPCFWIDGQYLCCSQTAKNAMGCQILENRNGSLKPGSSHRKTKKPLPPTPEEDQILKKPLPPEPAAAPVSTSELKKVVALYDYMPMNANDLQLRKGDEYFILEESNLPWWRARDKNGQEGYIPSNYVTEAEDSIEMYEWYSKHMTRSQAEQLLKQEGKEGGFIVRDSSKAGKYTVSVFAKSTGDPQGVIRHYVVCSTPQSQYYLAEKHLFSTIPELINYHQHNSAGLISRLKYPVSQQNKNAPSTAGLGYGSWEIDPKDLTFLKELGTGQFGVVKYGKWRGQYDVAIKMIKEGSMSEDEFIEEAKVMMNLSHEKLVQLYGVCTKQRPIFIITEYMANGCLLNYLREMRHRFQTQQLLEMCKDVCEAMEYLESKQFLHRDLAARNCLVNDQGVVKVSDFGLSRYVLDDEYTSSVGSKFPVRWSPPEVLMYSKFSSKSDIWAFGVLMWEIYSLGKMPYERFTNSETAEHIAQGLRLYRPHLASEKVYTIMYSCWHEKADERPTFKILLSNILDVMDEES
SMILES,IC50 [1] [nM],IC50 [2] [nM]
"Cn1cc(-c2cn3nccc3c(-c3ccc(CNC(=O)c4noc(C5(CF)CC5)n4)cc3)n2)cn1 [Example 20, 5-(1-(fluoromethyl)cyclopropyl)-N-(4-(6-(1-methyl-1H-pyrazol-4-yl)pyrazolo[1,5-a]pyrazin-4-yl)benzyl)-1,2,4-oxadiazole-3-carboxamide]",< 1,< 1000
"Cn1cc(-c2cn3nccc3c(-c3ccc(CNC(=O)c4nnn(C(C)(C)C)n4)c(C(F)F)c3)n2)cn1 [Example 106, 2-(tert-butyl)-N-(2-(difluoromethyl)-4-(6-(1-methyl-1H-pyrazol-4-yl)pyrazolo[1,5-a]pyrazin-4-yl)benzyl)-2H-tetrazole-5-carboxamide]",< 1,< 1000
"Cn1cc(-c2cn3nccc3c(-c3ccc(CNC(=O)c4noc(C(C)(C)C)n4)c(C(F)F)c3)n2)cn1 [Example 86, 5-(tert-butyl)-N-(2-(difluoromethyl)-4-(6-(1-methyl-1H-pyrazol-4-yl)pyrazolo[1,5-a]pyrazin-4-yl)benzyl)-1,2,4-oxadiazole-3-carboxamide]",< 1,< 1000
"Cn1cc(-c2cc3nccn3c(-c3ccc(CNC(=O)c4nnc(C(C)(C)C)o4)cc3)n2)cn1 [Example 61, 5-(tert-butyl)-N-(4-(7-(1-methyl-1H-pyrazol-4-yl)imidazo[1,2-c]pyrimidin-5-yl)benzyl)-1,3,4-oxadiazole-2-carboxamide]",10 to 1000,1000 to 10000
"Cn1cc(-c2cn3nccc3c(-c3ccc(CNC(=O)c4cnn(C(C)(C)C)n4)c(F)c3F)n2)cn1 [Example 92, 2-(tert-butyl)-N-(2,3-difluoro-4-(6-(1-methyl-1H-pyrazol-4-yl)pyrazolo[1,5-a]pyrazin-4-yl)benzyl)-2H-1,2,3-triazole-4-carboxamide]",< 1,< 1000
"Cn1cc(-c2cc3nccn3c(-c3ccc(CNC(=O)c4noc(C5(C)CC5)n4)cc3)n2)cn1 [Example 60, N-(4-(7-(1-methyl-1H-pyrazol-4-yl)imidazo[1,2-c]pyrimidin-5-yl)benzyl)-5-(1-methylcyclopropyl)-1,2,4-oxadiazole-3-carboxamide]",1 to 10,1000 to 10000
"Cn1cc(-c2cc(-c3ccc(CNC(=O)c4ccn(C(C)(C)C)n4)c(F)c3)c3ccnn3c2)cn1 [Example 70, 1-(tert-butyl)-N-(2-fluoro-4-(6-(1-methyl-1H-pyrazol-4-yl)pyrazolo[1,5-a]pyridin-4-yl)benzyl)-1H-pyrazole-3-carboxamide]",1 to 10,1000 to 10000
"Cn1cc(-c2cn3nccc3c(N3CCC(CN4CCN(CC(C)(C)C)CC4=O)CC3)n2)cn1 [Example 172, 1-((1-(6-(1-methyl-1H-pyrazol-4-yl)pyrazolo[1,5-a]pyrazin-4-yl)piperidin-4-yl)methyl)-4-neopentylpiperazin-2-one]",10 to 1000,1000 to 10000
"Cc1cc(-c2nc(-c3cnn(C)c3)cn3nccc23)ccc1CNC(=O)c1nnn(C(C)(C)C)n1 [Example 15, 2-(tert-butyl)-N-(2-methyl-4-(6-(1-methyl-1H-pyrazol-4-yl)pyrazolo[1,5-a]pyrazin-4-yl)benzyl)-2H-tetrazole-5-carboxamide]",< 1,< 1000
"Cn1cc(-c2cc3nccn3c(-c3ccc(CNC(=O)c4ccn(C(C)(C)C)n4)cc3)n2)cn1 [Example 56, 1-(tert-butyl)-N-(4-(7-(1-methyl-1H-pyrazol-4-yl)imidazo[1,2-c]pyrimidin-5-yl)benzyl)-1H-pyrazole-3-carboxamide]",10 to 1000,1000 to 10000
"Cn1cc(-c2cn3nccc3c(-c3cc(F)c(CNC(=O)c4coc(C(C)(C)C)n4)cc3F)n2)cn1 [Example 95, 2-(tert-butyl)-N-(2,5-difluoro-4-(6-(1-methyl-1H-pyrazol-4-yl)pyrazolo[1,5-a]pyrazin-4-yl)benzyl)oxazole-4-carboxamide]",1 to 10,1000 to 10000
